Results from the NIST ThermoML archive (doi:10.1016/j.tca.2005.10.008).

Assays:
[1] = Liquid; for mass density: 101.33 kPa, Pycnometric method; for viscosity / speed of sound: 101.3 kPa; for viscosity: Capillary tube (Ostwald / Ubbelohde) method; for speed of sound: Linear variable-path acoustic interferometer; for Normal boiling temperature: Distillation
[2] = xn = mol fraction of the nth substance listed; details: 303.15 K, 101 kPa, Liquid; for viscosity: Capillary tube (Ostwald / Ubbelohde) method; for excess molar volume: Direct dilatometry; for speed of sound: Linear variable-path acoustic interferometer

c1ccc2c(c1)CCCC2 [1,2,3,4-tetrahydronaphthalene]
[1]
Details | mass density [kg/m3] | speed of sound [m/s] | viscosity [mPa·s]
298.15 K | 965.89 | – | –
303.15 K | 955.44 | 1477 | 1.749

Details | Normal boiling temperature [°C]
[1] | 208.30

c1ccc2c(c1)CCCC2 [1,2,3,4-tetrahydronaphthalene] + CC(C)OC(C)C
[2]
Details | excess molar volume [m3/mol] | speed of sound [m/s] | viscosity [mPa·s]
x2 = 0 | – | 1477 | 1.749
x2 = 0.1358 | -7.08e-07 | 1396.1 | 1.445
x2 = 0.2509 | -1.135e-06 | 1342.5 | 1.223
x2 = 0.3997 | -1.459e-06 | 1276.3 | 0.976
x2 = 0.4474 | -1.505e-06 | 1253 | 0.904
x2 = 0.5718 | -1.503e-06 | 1191.8 | 0.739
x2 = 0.7163 | -1.261e-06 | 1119.7 | 0.578
x2 = 0.8473 | -8.13e-07 | 1054.2 | 0.46

CC(C)CC(C)(C)C [2,2,4-trimethylpentane]
[1], 303.15 K
Details | speed of sound [m/s] | viscosity [mPa·s]
– | 1060.8 | 0.455

CC(C)CC(C)(C)C [2,2,4-trimethylpentane] + CC(C)OC(C)C
[2], x2 = 0
Details | speed of sound [m/s] | viscosity [mPa·s]
– | 1060.8 | 0.455

c1ccccc1 [benzene]
[1]
Details | mass density [kg/m3] | speed of sound [m/s] | viscosity [mPa·s]
298.15 K | 873.64 | – | –
303.15 K | 868.39 | 1275.5 | 0.566

Details | Normal boiling temperature [°C]
[1] | 80.00

c1ccccc1 [benzene] + CC(C)OC(C)C
[2], x2 = 0
Details | speed of sound [m/s] | viscosity [mPa·s]
– | 1275.5 | 0.566

C1CCCCC1 [cyclohexane]
[1]
Details | mass density [kg/m3] | speed of sound [m/s] | viscosity [mPa·s]
298.15 K | 773.98 | – | –
303.15 K | 769.14 | 1231 | 0.793

Details | Normal boiling temperature [°C]
[1] | 80.80

C1CCCCC1 [cyclohexane] + CC(C)OC(C)C
[2], x2 = 0
Details | speed of sound [m/s] | viscosity [mPa·s]
– | 1231 | 0.793

C1CCC2CCCCC2C1 (centres undefined) [decahydronaphthalene]
[1]
Details | mass density [kg/m3] | speed of sound [m/s] | viscosity [mPa·s]
298.15 K | 879.14 | – | –
303.15 K | 868.5 | 1404 | 2.091

Details | Normal boiling temperature [°C]
[1] | 191.10

C1CCC2CCCCC2C1 (centres undefined) [decahydronaphthalene] + CC(C)OC(C)C
[2]
Details | excess molar volume [m3/mol] | speed of sound [m/s] | viscosity [mPa·s]
x2 = 0 | – | 1404 | 2.091
x2 = 0.1596 | -4e-07 | 1329 | 1.586
x2 = 0.2785 | -6.03e-07 | 1282.3 | 1.289
x2 = 0.4286 | -7.39e-07 | 1220.1 | 0.989
x2 = 0.4734 | -7.6e-07 | 1199.7 | 0.913
x2 = 0.6153 | -7.24e-07 | 1141.3 | 0.706
x2 = 0.7514 | -5.84e-07 | 1084.9 | 0.553
x2 = 0.8663 | -3.59e-07 | 1035.8 | 0.448

CC(C)OC(C)C [diisopropyl ether]
[1]
Details | mass density [kg/m3] | speed of sound [m/s] | viscosity [mPa·s]
298.15 K | 718.14 | – | –
303.15 K | 711.97 | 974.9 | 0.35

Details | Normal boiling temperature [°C]
[1] | 68.20

CC(C)OC(C)C [diisopropyl ether] + C1CCC2CCCCC2C1
[2], x1 = 1
Details | speed of sound [m/s] | viscosity [mPa·s]
– | 974.9 | 0.35

CC(C)OC(C)C [diisopropyl ether] + C1CCCCC1
[2]
Details | excess molar volume [m3/mol] | speed of sound [m/s] | viscosity [mPa·s]
x1 = 0.118 | 3.2e-08 | 1187.4 | 0.666
x1 = 0.2172 | 4.7e-08 | 1157.7 | 0.589
x1 = 0.357 | 6.3e-08 | 1117.9 | 0.513
x1 = 0.3972 | 6.6e-08 | 1106.9 | 0.494
x1 = 0.5029 | 6.9e-08 | 1080.7 | 0.452
x1 = 0.6777 | 6.3e-08 | 1041.6 | 0.403
x1 = 0.8199 | 3.9e-08 | 1011.6 | 0.373
x1 = 1 | – | 974.9 | 0.35

CC(C)OC(C)C [diisopropyl ether] + CC(C)CC(C)(C)C
[2]
Details | excess molar volume [m3/mol] | speed of sound [m/s] | viscosity [mPa·s]
x1 = 0.1561 | 1.43e-07 | 1047.6 | 0.441
x1 = 0.2397 | 2.09e-07 | 1040.4 | 0.432
x1 = 0.3083 | 2.28e-07 | 1034.5 | 0.422
x1 = 0.4565 | 2.79e-07 | 1022.6 | 0.405
x1 = 0.4804 | 2.75e-07 | 1019.7 | 0.4
x1 = 0.6222 | 2.5e-07 | 1007.5 | 0.38
x1 = 0.8133 | 1.54e-07 | 991.1 | 0.36
x1 = 0.8775 | 1.24e-07 | 985.6 | 0.355
x1 = 1 | – | 974.9 | 0.35

CC(C)OC(C)C [diisopropyl ether] + CCCCCC
[2]
Details | excess molar volume [m3/mol] | speed of sound [m/s] | viscosity [mPa·s]
x1 = 0.1305 | 1.37e-07 | 1039.2 | 0.312
x1 = 0.2555 | 2.45e-07 | 1027.5 | 0.315
x1 = 0.392 | 3.26e-07 | 1016 | 0.319
x1 = 0.4661 | 3.44e-07 | 1009.9 | 0.321
x1 = 0.5633 | 3.34e-07 | 1002.6 | 0.325
x1 = 0.605 | 3.25e-07 | 999.6 | 0.326
x1 = 0.7173 | 2.79e-07 | 992.4 | 0.331
x1 = 0.846 | 1.74e-07 | 984.4 | 0.338
x1 = 1 | – | 974.9 | 0.35

CC(C)OC(C)C [diisopropyl ether] + CCCCCCC
[2]
Details | excess molar volume [m3/mol] | speed of sound [m/s] | viscosity [mPa·s]
x1 = 0.1462 | 1.67e-07 | 1090.7 | 0.385
x1 = 0.2667 | 2.45e-07 | 1072.8 | 0.377
x1 = 0.4165 | 3.16e-07 | 1050.6 | 0.365
x1 = 0.4774 | 3.24e-07 | 1041.8 | 0.359
x1 = 0.5331 | 3.27e-07 | 1033.9 | 0.356
x1 = 0.6068 | 3.01e-07 | 1023.9 | 0.352
x1 = 0.7371 | 2.61e-07 | 1006.9 | 0.346
x1 = 0.8642 | 1.73e-07 | 991.3 | 0.345
x1 = 1 | – | 974.9 | 0.35

CC(C)OC(C)C [diisopropyl ether] + CCCCCCCC
[2]
Details | excess molar volume [m3/mol] | speed of sound [m/s] | viscosity [mPa·s]
x1 = 0.165 | 1.58e-07 | 1125.5 | 0.464
x1 = 0.2501 | 2.26e-07 | 1112.3 | 0.451
x1 = 0.3816 | 2.95e-07 | 1090.5 | 0.429
x1 = 0.4395 | 3.04e-07 | 1080.3 | 0.417
x1 = 0.4911 | 3.02e-07 | 1071.7 | 0.404
x1 = 0.6217 | 2.78e-07 | 1048.3 | 0.381
x1 = 0.7805 | 2.03e-07 | 1018.9 | 0.36
x1 = 0.8706 | 1.26e-07 | 1000.4 | 0.354
x1 = 1 | – | 974.9 | 0.35

CC(C)OC(C)C [diisopropyl ether] + c1ccc2c(c1)CCCC2
[2], x1 = 1
Details | speed of sound [m/s] | viscosity [mPa·s]
– | 974.9 | 0.35

CC(C)OC(C)C [diisopropyl ether] + c1ccccc1
[2]
Details | excess molar volume [m3/mol] | speed of sound [m/s] | viscosity [mPa·s]
x1 = 0.0962 | -1.61e-07 | 1232.1 | 0.542
x1 = 0.1813 | -2.87e-07 | 1201.5 | 0.522
x1 = 0.3084 | -4.17e-07 | 1159.2 | 0.492
x1 = 0.3375 | -4.42e-07 | 1148.4 | 0.486
x1 = 0.4703 | -4.86e-07 | 1108.5 | 0.456
x1 = 0.6323 | -4.62e-07 | 1064.1 | 0.422
x1 = 0.7927 | -3.32e-07 | 1022.2 | 0.389
x1 = 1 | – | 974.9 | 0.35

CCCCCCC [heptane]
[1]
Details | mass density [kg/m3] | speed of sound [m/s] | viscosity [mPa·s]
298.15 K | 678.93 | – | –
303.15 K | 674.38 | 1110.5 | 0.387

Details | Normal boiling temperature [°C]
[1] | 98.20

CCCCCCC [heptane] + CC(C)OC(C)C
[2], x2 = 0
Details | speed of sound [m/s] | viscosity [mPa·s]
– | 1110.5 | 0.387

CCCCCC [hexane]
[1]
Details | mass density [kg/m3] | speed of sound [m/s] | viscosity [mPa·s]
298.15 K | 654.9 | – | –
303.15 K | 650.64 | 1052.9 | 0.309

Details | Normal boiling temperature [°C]
[1] | 68.70

CCCCCC [hexane] + CC(C)OC(C)C
[2], x2 = 0
Details | speed of sound [m/s] | viscosity [mPa·s]
– | 1052.9 | 0.309

CCCCCCCC [octane]
[1]
Details | mass density [kg/m3] | speed of sound [m/s] | viscosity [mPa·s]
298.15 K | 697.36 | – | –
303.15 K | 692.56 | 1152 | 0.477

Details | Normal boiling temperature [°C]
[1] | 126.00

CCCCCCCC [octane] + CC(C)OC(C)C
[2], x2 = 0
Details | speed of sound [m/s] | viscosity [mPa·s]
– | 1152 | 0.477
